Assay results as given in patent publication US20190062371A1, “PEPTIDE COMPOSITIONS AND RELATED METHODS” (Allegro Pharmaceuticals, Inc., priority 2017, published 2019).

Test system: ischemia-induced retinal neovascularization
Test: Mouse model of retinopathy of prematurity (ROP), ischemia-induced retinal neovascularization
Format: in vivo, C57Bl/6 mice
Details: for Activity At Dose Tested: intravitreal 20 micrograms, P17; for Mean % Reduction of Retinal Neovascularization In ROP Model: intravitreal injection of 1.0 microliters containing 20 micrograms of Test Compound at P12, neovascular area at P17 (Taurine solutions 3.0 mg/100 μL)
Description: Each test compound was prepared in sterile water for injection, containing 0.08 mg/100 μL of sodium chloride and 0.005 mg/100 μL of trisodium citrate, the concentration of the peptide was at a concentration of […] and pH=2.7 and dispensed by sterile filtration into sterile vials. The Taurine test compound was obtained from Sigma Aldrich company, which was >99% pure, and prepared the same way as mentioned previously, having a concentration of 3.0 mg/100 μL. The R-G-Cys(acid) at 2.0 mg/100 μL+Taurine at 3.0 mg/100 μL were prepared the same way as mentioned above
To screen the test compounds for activity against ischemia-induced retinal neovascularization, the well-established model of retinopathy of prematurity (ROP) in mice was used. Litters of C57Bl/6 mice were placed in 75% oxygen at postnatal day (P) 7, returned to room air at day (P) 12. The Pups were randomly assigned to treatment groups of 4 to 10 animals per group. The pups were treated as follows: Treatment eyes were treated by intravitreal injection of 1.0 microliters of solution containing 20 micrograms of Test Compound.
On post-natal day 17, 5 days after intravitreal injection, the animals were sacrificed, the retinas were flat mounted and the area of neovascularization in each retina was determined by Fluorescein-dextran image analysis.
Applicant has identified the tripeptide R-G-Cysteic(Acid) as an integrin binding motif of the oligopeptide Glycinyl-Arginyl-Glycinyl-Cysteic(Acid)-Threonyl-Proline (ALG-1001 or Luminate®, Allegro Ophthalmics, LLC). The trifluoroacetate (TFA) and acetate salts of the R-G-Cysteic(Acid) tripeptide (Test Compound Nos. 1 and 2) were tested in both the ROP Mouse Model as described above as well as in a mouse model of choroidal neovascularization induced by laser photocoagulation (“CNV Mouse Model”), as generally as described in Lambert, V., et al., Laser-Induced Choroidal Neovascarization Model to Study Age Related Macular Degeneration in Mice, Nature Protocols, 8; 2197-2211 (2013). […] In some of the experiments, an additional “Positive Control” group was included.
The following Table 1 summarizes the neovascularization inhibiting effect of each Test Compound at the dose tested. In each instance, the data was obtained using the ROP Mouse Model, except for the two table entries specifically labeled “CNV”. Only those table entries labeled “CNV” show data obtained from the CNV Mouse Model. Bar graphs showing the test results summarized in Table 1 are also provided herewith as FIGS. 1 through 27.

| Compound | Activity At Dose Tested | Mean % Reduction of Retinal Neovascularization In ROP Model |
| --- | --- | --- |
| Cyclo-{R-G-Cys(acid)-F—N—Me—V} Acetate [Test Compound 12] | Active | 57% |
| R-D-G•TFA [Test Compound 18] | Active | 44% |
| NCCS(=O)(=O)O [Test Compound 25, Taurine, reference compound] | Slightly Active | 33% |
| R-G-Cys(acid)-G-G-GD-G•TFA [Test Compound 7] | Active | 62% |
| Cyclo-{R-G-D-D-F—NMe—V}•TFA [Test Compound 13] | Active | 75% |
| R-A-Cys (acid)•TFA [Test Compound 3] | Active | 60% |
